From patent US20040171640A1, “Substituted 1-phenethylpiperidine compounds used as inter alia analgesics” (priority 2001, published 2004)

How the values were obtained:
[1] = tested on: phenylquinone-induced writhing in mice; assay: Analgesic testing by phenylquinone-induced writhing test in mice; type: in vivo, male NMRI mice; conditions: Mus musculus, read-out: Antinociceptive action in % relative to control group; for inhibition in vivo at 10 mg/kg: 10 mg/kg intravenous
Method: 1.) Analgesic Testing by Writhing Test in Mice
The investigation into analgesic efficacy was performed by phenylquinone-induced writhing in mice (modified after: I. C. Hendershot J. Forsaith, J. Pharmacol. Exp. There. 125, 237-240 (1959)). The corresponding literature description is hereby introduced as a reference and is deemed to be part of the disclosure.
Male NMRI mice weighing from 25 to 30 g were used for this purpose. Groups of 10 animals per substance dose received, 10 minutes after intravenous administration of the compounds tested, 0.3 ml/mouse of a 0.02% aqueous solution of phenylquinone (phenylbenzoquinone, Sigma, Deisenhofen; solution prepared with addition of 5% of ethanol and stored in a water bath at 45° C.) administered intraperitoneally. The animals were placed individually in observation cages. A push button counter was used to record the number of pain-induced stretching movements (writhing reactions=straightening of the torso with stretching of the rear extremities) for 5-20 minutes after phenylquinone administration. The control was provided by animals who received only physiological common salt solution.
The compounds were tested at the standard dosage of 10 mg/kg. Inhibition of the writhing reactions by a substance was calculated according to the following formula: [formula]
1.) Analgesic Testing by Writhing Test in Mice:
The in-depth investigation into analgesic efficacy was performed using phenylquinone-induced writhing in mice, as described above.

[2] = tested on: tail flick (pain latency) in mice; assay: Analgesic testing by tail flick test in mice; type: in vivo; conditions: Mus musculus, read-out: Antinociceptive action in % relative to control group; for inhibition in vivo at 1 mg/kg: 1 mg/kg intravenous
Description: 2.) Analgesic Testing by Tail Flick Test in Mice
The mice were each individually put in a test cage and the base of the tail was exposed to the focused heat flux from an electric lamp (tail flick type 50/08/1.bc, Labtec, Dr. Hess). The lamp intensity was so set that the time from switching on of the lamp until sudden flicking away of the tail (pain latency) in untreated mice amounted to 3 to 5 seconds. Prior to administration of the solutions containing the compound according to the invention or the respective comparison solutions, the mice were pre-tested twice within five minutes and the average value of these measurements was calculated as a pre-test average value.
The solutions of the compound according to the invention of the general formula I and the comparison solutions were then administered intravenously. Pain was measured in each case 10, 20, 40 and 60 minutes after intravenous administration. The analgesic action was determined as an increase in pain latency (% of the maximum possible antinociceptive effect) in accordance with the following formula: […]
In this formula, the time T0 is the latency time prior to administration, the time T1 is the latency time after administration of active ingredient combination and the time T2 is the maximum exposure period (12 seconds)
2.) Analgesic Testing by Tail Flick Test in Mice:
The in-depth investigation into analgesic efficacy was performed using the tail flick test in mice, as described above.

SMILES	inhibition in vivo at 10 mg/kg [1]	inhibition in vivo at 1 mg/kg [2]	other results
COc1ccc(NCCC2CCN(CCc3ccccc3)CC2)cc1 [Example 7, (4-Methoxyphenyl)-[2-(1-phenethylpiperidin-4-yl)ethyl]amine]	100%	–	–
FC(F)(F)c1cccc(NCCC2CCN(CCc3ccccc3)CC2)c1 [Example 13, [2-(1-Phenethyl-piperidin-4-yl)ethyl]-(3-trifluoromethyl-phenyl)amine]	–	31%	–
CC(=O)N(CCC1CCN(CCc2ccccc2)CC1)c1ccccc1 [Example 22, N-[2-(1-Phenethylpiperidin-4-yl)ethyl]-N-phenylacetamide]	–	24%	–
O=C(CC1CCN(CCc2ccccc2)CC1)Nc1ccccc1 [Example 1, 2-(1-Phenethyl-piperidin-4-yl)-N-phenylacetamide]	–	–	inhibition in vivo at 0.1 mg/kg ([2]; 0.1 mg/kg intravenous): 56%
O=C(CC1CCN(CCc2ccccc2)CC1)Nc1ccc(Cl)cc1F [Example 11, N-(4-Chloro-2-fluorophenyl)-2-(1-phenethylpiperidin-4-yl)acetamide]	100%	–	–
Oc1ccc(NCCC2CCN(CCc3ccccc3)CC2)cc1 [Example 15, 4-[2-(1-Phenethylpiperidin-4-yl)ethylamino]phenol]	100%	–	–
COc1cccc(NC(=O)CC2CCN(CCc3ccccc3)CC2)c1 [Example 9, N-(3-Methoxyphenyl)-2-(1-phenethyl-piperidin-4-yl)acetamide]	–	–	inhibition in vivo at 1 mg/kg ([1]; 1 mg/kg intravenous): 56%
COc1ccccc1NC(=O)CC1CCN(CCc2ccccc2)CC1 [Example 4, N-(2-Methoxyphenyl)-2-(1-phenethylpiperidin-4-yl)-acetamide]	100%	–	–
CC(=O)N(CCC1CCN(CCc2ccccc2)CC1)c1cccc(C(F)(F)F)c1 [Example 21, N-[2-(1-Phenethylpiperidin-4-yl)ethyl]-N-(3-trifluoromethylphenyl)acetamide]	100%	34%	–
O=C(C=C1CCN(CCc2ccccc2)CC1)Nc1ccccc1 [Example 3, 2-(1-Phenethyl-piperidine-4-ylidene)-N-phenylacetamide]	69%	–	–
COc1ccc(N(CCC2CCN(CCc3ccccc3)CC2)C(=O)c2ccccc2)cc1Cl [Example 20, N-(3-Chloro-4-methoxyphenyl)-N-[2-(1-phenethylpiperidin-4-yl)ethyl]benzamide]	88%	23%	–
CCC(=O)N(CCC1CCN(CCc2ccccc2)CC1)c1ccc(OC)c(Cl)c1 [Example 19, N-(3-Chloro-4-methoxyphenyl)-N-[2-(1-phenethylpiperidin-4-yl)ethyl]propionamide]	100%	35%	–
O=C(CC1CCN(CCc2ccccc2)CC1)Nc1cccc(C(F)(F)F)c1 [Example 12, 2-(1-Phenethylpiperidin-4-yl)-N-(3-trifluoromethyl-phenyl)acetamide]	–	21%	–
COc1ccc(NC(=O)CC2CCN(CCc3ccccc3)CC2)cc1Cl [Example 10, N-(3-Chloro-4-methoxyphenyl)-2-(1-phenethylpiperidin-4-yl)acetamide]	100%	–	–
COc1cccc(NCCC2CCN(CCc3ccccc3)CC2)c1 [Example 14, (3-Methoxyphenyl)-[2-(1-phenethylpiperidin-4-yl)ethyl]amine]	100%	–	–
Oc1ccccc1NCCC1CCN(CCc2ccccc2)CC1 [Example 8, 2-[2-(1-Phenethylpiperidin-4-yl)ethylamino]phenol]	100%	–	–
Fc1cc(Cl)ccc1NCCC1CCN(CCc2ccccc2)CC1 [Example 16, (4-Chloro-2-fluorophenyl)-[2-(1-phenethylpiperidin-4-yl)ethyl]amine]	80%	–	inhibition in vivo at 10 mg/kg ([2]; 10 mg/kg intravenous): 31%
CCC(=O)N(CCC1CCN(CCc2ccccc2)CC1)c1ccccc1 [Example 23, N-[2-(1-Phenethylpiperidin-4-yl)ethyl]-N-phenylpropionamide]	99%	–	–
Oc1cccc(NCCC2CCN(CCc3ccccc3)CC2)c1 [Example 17, 3-[2-(1-Phenethylpiperidin-4-yl)ethylamino]phenol]	100%	–	–
O=C(CC1CCN(CCc2ccccc2)CC1)Nc1ccccc1OC(F)(F)F [Example 6, 2-(1-Phenethyl-piperidin-4-yl)-N-(2-trifluoromethoxy-phenyl)acetamide]	99%	–	–
O=C(c1ccccc1)N(CCC1CCN(CCc2ccccc2)CC1)c1ccccc1 [Example 24, N-[2-(1-Phenethylpiperidin-4-yl)ethyl]-N-phenylbenzamide]	100%	24%	–
COc1ccc(N(CCC2CCN(CCc3ccccc3)CC2)C(C)=O)cc1Cl [Example 18, N-(3-Chloro-4-methoxyphenyl)-N-[2-(1-phenethylpiperidin-4-yl)ethyl]acetamide]	100%	–	–
COc1ccc(NC(=O)CC2CCN(CCc3ccccc3)CC2)cc1 [Example 5, N-(4-Methoxyphenyl)-2-(1-phenethyl-piperidin-4-yl)-acetamide]	100%	–	–
